US12351576B2, “FGFR inhibitor, preparation method therefor and application thereof” (Abbisko Therapeutics Co., Ltd., priority 2018, dated 2025)

How the values were obtained:
[1] = tested on: H1581 lung cancer cells (FGFR1 gene amplification); experiment: Cell proliferation assay (Cell Titer Glo), H1581; type: cell-based; settings: Homo sapiens, NCI-H1581, 72 h, 3 days, CTG, read-out: Cellular IC50 (nM) H1581
Description: (§1) II. Cell Proliferation Assay (Cell Titer Glo(CTG) Assay)
(§2) The FGFR signal pathway dependent inhibitory effect of the compound in the present invention on cell proliferation was assessed by survival test using CTG reagent (Promega, 4G7573). Cell lines representative of a variety of tumor types, including H1581 lung cancer cells (FGFR1 gene amplification), Snu-16 gastric cancer cells (FGFR2 gene amplification), and RT112 bladder carcinoma cells (FGFR3-TACC3 fusion) from Nanjing Cobioer Biosciences, were selected for the assay. The specific experimental procedure was as follows: • 1. 90 μL of cells were seeded into a 96-well plate processed with TCM (Costar 43904), and incubated overnight at 37° C. in a 5% CO2 incubator; afterwards, 10 μL of the culture medium containing the compound at 10 fold of its final concentration was added; • 2. The dose-dependent effect was evaluated by a serial dilution of the test compound, starting from 10 μM or a lower concentration. • 3. The cells were incubated at 37° C. under 5% C02 for 3 days, then added 50 μL CTG, and read the data with Envision (Pelkin Elmer) to quantify the ATP level in the cells. The ATP levels in cells with treatment of inhibitor at a variety of concentrations were compared with those in cells of the control group (in which DMSO was added into the medium) to evaluate the compound percent inhibition of cell proliferation/survival. • 4. The compound half growth inhibitory concentration (IC50) was determined in Graphpad Prism by 4-parameter curve fitting.

[2] = tested on: Snu-16 gastric cancer cells (FGFR2 gene amplification); experiment: Cell proliferation assay (Cell Titer Glo), Snu-16; type: cell-based; settings: Homo sapiens, SNU-16, 72 h, Snu-16 cells, 3 days, CTG; read-out: Cellular IC50 (nM) Sun16
Description: as §1, §2

Structure (SMILES)	IC50 [1]	IC50 [2]
COc1cc(OC)c(Cl)c(-c2cc3cnc(-c4ccc(C5(C#N)CCC5)nc4)cc3n(C)c2=O)c1Cl [Example 20, 1-(5-(3-(2,6-dichloro-3,5-dimethoxyphenyl)-1-methyl-2-oxo-1,2-dihydro-1,6-naphthyridin-7-yl)pyridin-2-yl)cyclobutane-1-carbonitrile]	> 500 nM	50 to 500 nM
CCn1c(=O)c(-c2c(Cl)c(OC)cc(OC)c2Cl)cc2cnc(-c3ccc(C4(C#N)CCC4)nc3)cc21 [Example 12, 1-(5-(3-(2,6-dichloro-3,5-dimethoxyphenyl)-1-ethyl-2-oxo-1,2-dihydro-1,6-naphthyridin-7-yl)pyridin-2-yl)cyclobutane-1-carbonitrile]	> 500 nM	50 to 500 nM
COc1cc(OC)c(F)c(-c2cc3cnc(-c4cccnc4)cc3n(C3CCOC3)c2=O)c1F (centres unmarked) [Example 36, 3-(2,6-difluoro-3,5-dimethoxyphenyl)-7-(pyridin-3-yl)-1-(tetrahydrofuran-3-yl)-1,6-naphthyridin-2(1H)-one]	50 to 500 nM	10 to 50 nM
COc1cc(OC)c(F)c(-c2cc3cnc(-c4ccncc4)cc3n(C3CCOC3)c2=O)c1F (centres unmarked) [Example 39, 3-(2,6-difluoro-3,5-dimethoxyphenyl)-7-(pyridin-4-yl)-1-(tetrahydrofuran-3-yl)-1,6-naphthyridin-2(1H)-one]	50 to 500 nM	50 to 500 nM
COc1cc(OC)c(Cl)c(-c2cc3cnc(-c4cnn(C)c4)cc3n(C3CCOCC3)c2=O)c1Cl [Example 17, 3-(2,6-dichloro-3,5-dimethoxyphenyl)-7-(1-methyl-1H-pyrazol-4-yl)-1-(tetrahydro-2H-pyran-4-yl)-1,6-naphthyridin-2(1H)-one]	50 to 500 nM	5 to 10 nM
COc1cc(OC)c(F)c(-c2cc3cnc(-c4ccc(CC#N)cc4)cc3n(C3CCOC3)c2=O)c1F (centres unmarked) [Example 41, 2-(4-(3-(2,6-difluoro-3,5-dimethoxyphenyl)-2-oxo-1-(tetrahydrofuran-3-yl)-1,2-dihydro-1,6-naphthyridin-7-yl)phenyl)acetonitrile]	50 to 500 nM	50 to 500 nM
COc1cc(OC)c(Cl)c(-c2cc3cnc(-c4cnn(C)c4)cc3n(C3CCOC3)c2=O)c1 (centres unmarked) [Example 24, 3-(2-chloro-3,5-dimethoxyphenyl)-7-(1-methyl-1H-pyrazol-4-yl)-1-(tetrahydrofuran-3-yl)-1,6-naphthyridin-2(1H)-one]	50 to 500 nM	10 to 50 nM
COc1cc(OC)c(F)c(-c2cc3cnc(-c4cnn(C)c4)cc3n(C(C)C)c2=O)c1F [Example 26, 3-(2,6-difluoro-3,5-dimethoxyphenyl)-1-isopropyl-7-(1-methyl-1H-pyrazol-4-yl)-1,6-naphthyridin-2(1H)-one]	10 to 50 nM	10 to 50 nM
CCn1c(=O)c(-c2c(Cl)c(OC)cc(OC)c2Cl)cc2cnc(-c3cnn(CCN4CCOCC4)c3C)cc21 [Example 49, 3-(2,6-dichloro-3,5-dimethoxyphenyl)-1-ethyl-7-(5-methyl-1-(2-morpholinoethyl)-1H-pyrazol-4-yl)-1,6-naphthyridin-2(1H)-one]	50 to 500 nM	50 to 500 nM
CCn1c(=O)c(-c2c(Cl)c(OC)cc(OC)c2Cl)cc2cnc(-c3cnn(CCN(C)C)c3C)cc21 [Example 52, 3-(2,6-dichloro-3,5-dimethoxyphenyl)-7-(1-(2-(dimethylamino)ethyl)-5-methyl-1H-pyrazol-4-yl)-1-ethyl-1,6-naphthyridin-2(1H)-one]	> 500 nM	50 to 500 nM
COc1cc(OC)c(Cl)c(-c2cc3cnc(-c4cn(CCN5CCOCC5)nc4C)cc3n(C)c2=O)c1Cl [Example 47, 3-(2,6-dichloro-3,5-dimethoxyphenyl)-1-methyl-7-(3-methyl-1-(2-morpholinoethyl)-1H-pyrazol-4-yl)-1,6-naphthyridin-2(1H)-one]	50 to 500 nM	50 to 500 nM
CCn1c(=O)c(-c2c(Cl)c(OC)cc(OC)c2Cl)cc2cnc(-c3cnn(CC#N)c3C)cc21 [Example 50, 2-(4-(3-(2,6-dichloro-3,5-dimethoxyphenyl)-1-ethyl-2-oxo-1,2-dihydro-1,6-naphthyridin-7-yl)-5-methyl-1H-pyrazol-1-yl)acetonitrile]	> 500 nM	> 500 nM
CCn1c(=O)c(-c2c(Cl)c(OC)cc(OC)c2Cl)cc2cnc(-c3cn(CCN(C)C)nc3C)cc21 [Example 45, 3-(2,6-dichloro-3,5-dimethoxyphenyl)-7-(1-(2-(dimethylamino)ethyl)-3-methyl-1H-pyrazol-4-yl)-1-ethyl-1,6-naphthyridin-2(1H)-one]	50 to 500 nM	10 to 50 nM
CCn1c(=O)c(-c2c(Cl)c(OC)cc(OC)c2Cl)cc2cnc(-c3cnn(CCC#N)c3C)cc21 [Example 51, 3-(4-(3-(2,6-dichloro-3,5-dimethoxyphenyl)-1-ethyl-2-oxo-1,2-dihydro-1,6-naphthyridin-7-yl)-5-methyl-1H-pyrazol-1-yl)propanenitrile]	> 500 nM	50 to 500 nM
COc1cc(OC)c(F)c(-c2cc3cnc(-c4ccc(N5CC6CC5CO6)nc4)cc3n(C3CCOC3)c2=O)c1F (centres unmarked) [Example 38, 7-(6-(2-oxa-5-azabicyclo[2.2.1]heptan-5-yl)pyridin-3-yl)-3-(2,6-difluoro-3,5-dimethoxyphenyl)-1-(tetrahydrofuran-3-yl)-1,6-naphthyridin-2(1H)-one]	10 to 50 nM	≤ 5 nM
CCn1c(=O)c(-c2c(Cl)c(OC)cc(OC)c2Cl)cc2cnc(-c3cn(CCC#N)nc3C)cc21 [Example 44, 3-(4-(3-(2,6-dichloro-3,5-dimethoxyphenyl)-1-ethyl-2-oxo-1,2-dihydro-1,6-naphthyridin-7-yl)-3-methyl-1H-pyrazol-1-yl)propanenitrile]	50 to 500 nM	50 to 500 nM
COc1cc(OC)c(F)c(-c2cc3cnc(-c4cnccc4C)cc3n(C3CCOC3)c2=O)c1F (centres unmarked) [Example 37, 3-(2,6-difluoro-3,5-dimethoxyphenyl)-7-(4-methylpyridin-3-yl)-1-(tetrahydrofuran-3-yl)-1,6-naphthyridin-2(1H)-one]	> 500 nM	50 to 500 nM
COc1cc(OC)c(F)c(-c2cc3cnc(-c4cnn(CCN5CCOCC5)c4)cc3n(CC3CC3)c2=O)c1F [Example 31, 1-(cyclopropylmethyl)-3-(2,6-difluoro-3,5-dimethoxyphenyl)-7-(1-(2-morpholinoethyl)-1H-pyrazol-4-yl)-1,6-naphthyridin-2(1H)-one]	50 to 500 nM	10 to 50 nM
CCn1c(=O)c(-c2c(Cl)c(OC)cc(OC)c2Cl)cc2cnc(-c3cn(CCN4CCOCC4)nc3C)cc21 [Example 42, 3-(2,6-dichloro-3,5-dimethoxyphenyl)-1-ethyl-7-(3-methyl-1-(2-morpholinoethyl)-1H-pyrazol-4-yl)-1,6-naphthyridin-2(1H)-one]	50 to 500 nM	10 to 50 nM
